biological target: T1, chimeric human H3 receptor (Homo sapiens, UniProt Q9Y5N1); experiment: Chimeric human H3 receptor GTP binding assay (agonist-stimulated GTP-gamma35S binding, Example 7); type: biochemical; conditions: Table I; P2 membranes of Sf9 cells, 1 μM histamine as agonist, Ki from IC50 by Cheng-Prusoff
T1 construct: made in house; host or cells: Sf9 insect cells (baculovirus); P2 membrane preparation
Outline: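 Sf9 membranes co-expressing chimeric human H3 receptor and heterotrimeric G-protein, 35 μg/tube, in pH 7.4 Tris buffer with 10 μM GDP. Test compounds (10^−10–10^−6 M) competed against 1 μM histamine, […] GTP-gamma35S, 60 min at room temperature. Filter-bound radioactivity counted; IC50 converted to Ki by Cheng-Prusoff. Agonism/inverse agonism tested without histamine (EC50).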

T1 sequence (Q9Y5N1 with tags, fused parts or gaps): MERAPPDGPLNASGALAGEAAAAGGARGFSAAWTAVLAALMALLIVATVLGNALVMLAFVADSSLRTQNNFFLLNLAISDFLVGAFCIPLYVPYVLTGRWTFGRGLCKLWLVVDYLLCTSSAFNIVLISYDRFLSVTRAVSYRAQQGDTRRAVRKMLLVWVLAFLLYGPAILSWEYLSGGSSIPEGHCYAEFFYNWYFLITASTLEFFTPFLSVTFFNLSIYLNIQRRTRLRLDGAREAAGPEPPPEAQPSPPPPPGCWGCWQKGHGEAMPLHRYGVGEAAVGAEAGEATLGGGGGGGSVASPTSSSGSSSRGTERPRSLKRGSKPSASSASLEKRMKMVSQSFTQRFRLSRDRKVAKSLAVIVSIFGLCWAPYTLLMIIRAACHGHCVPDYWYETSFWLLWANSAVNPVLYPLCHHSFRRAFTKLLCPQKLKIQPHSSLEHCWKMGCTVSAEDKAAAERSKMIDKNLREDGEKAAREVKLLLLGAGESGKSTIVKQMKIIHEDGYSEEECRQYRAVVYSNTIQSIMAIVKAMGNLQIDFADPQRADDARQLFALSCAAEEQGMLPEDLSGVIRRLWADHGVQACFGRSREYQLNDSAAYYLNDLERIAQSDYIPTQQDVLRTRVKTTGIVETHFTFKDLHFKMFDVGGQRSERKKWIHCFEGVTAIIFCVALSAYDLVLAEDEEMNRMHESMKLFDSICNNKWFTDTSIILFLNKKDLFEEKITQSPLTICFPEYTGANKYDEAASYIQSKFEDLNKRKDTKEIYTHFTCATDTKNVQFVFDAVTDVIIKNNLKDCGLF

Ki, < 1000 nM:
O=C(CN1CCc2cc(-c3ccncc3)ccc2C1)N1CCN(C2CCC2)CC1 [Compound 75, 2-[2-(4-cyclobutylpiperazin-1-yl)-2-oxoethyl]-6-pyridin-4-yl-1,2,3,4-tetrahydroisoquinoline]

same assay, conditions: Table II "Ki", symbol *; assay of Example 7

Ki, < 1000 nM:
CCC(COC)Nc1ccc2c(n1)CCN(CC(=O)N1CCN(C3CCC3)CC1)C2 (stereo not shown) [Compound 666, 6-[2-(4-cyclobutylpiperazin-1-yl)-2-oxoethyl]-N-[1-(methoxymethyl)propyl]-5,6,7,8-tetrahydro-1,6-naphthyridin-2-amine]
CCCOc1ccc(-c2ccc3c(c2)CCN(CC(=O)N2CCN(C4CCCC4)CC2)C3)cc1 [Compound 545, 2-[2-(4-cyclopentylpiperazin-1-yl)-2-oxoethyl]-6-(4-propoxyphenyl)-1,2,3,4-tetrahydroisoquinoline]
COc1ccc(-c2ccc3c(c2)CCN(CC(=O)N2CCN(C4CCC4)CC2)C3)cc1 [Compound 520, 2-[2-(4-cyclobutylpiperazin-1-yl)-2-oxoethyl]-6-(4-methoxyphenyl)-1,2,3,4-tetrahydroisoquinoline]
O=C(CN1CCc2cc(-c3nccc4ccccc34)ccc2C1)N1CCN(C2CCC2)CC1 [Compound 637, 2′-[2-(4-cyclobutylpiperazin-1-yl)-2-oxoethyl]-1′,2′,3′,4′-tetrahydro-1,6′-biisoquinoline]
CN(C)CCc1ccc(-c2ccc3c(c2)CCN(CC(=O)N2CCN(C4CCC4)CC2)C3)cc1 [Compound 645, 2-(4-{2-[2-(4-cyclobutylpiperazin-1-yl)-2-oxoethyl]-1,2,3,4-tetrahydroisoquinolin-6-yl}phenyl)-N,N-dimethylethanamine]

same assay, conditions: Table II; "*" = Ki in assay of Example 7 less than 1 micromolar

Ki, < 1000 nM:
Cn1cccc(-c2ccc3c(c2)CCN(CC(=O)N2CCN(C4CCC4)CC2)C3)c1=O [Compound 212, 3-{2-[2-(4-cyclobutylpiperazin-1-yl)-2-oxoethyl]-1,2,3,4-tetrahydroisoquinolin-6-yl}-1-methylpyridin-2(1H)-one]
CCC1CCC[C@H]2CN(C(=O)CN3CCc4cc(Br)ccc4C3)CCN12 (stereo in doubt) [Compound 162, 2-[(6-bromo-3,4-dihydroisoquinolin-2(1H)-yl)acetyl]-6-ethyloctahydro-2H-pyrido[1,2-a]pyrazine]
CC1(N2CCN(C(=O)CN3CCc4cc(-c5cncnc5)ccc4C3)CC2)CCC1 [Compound 169, 2-{2-[4-(1-methylcyclobutyl)piperazin-1-yl]-2-oxoethyl}-6-pyrimidin-5-yl-1,2,3,4-tetrahydroisoquinoline]
CC1CCCC1N1CCN(C(=O)CN2CCc3cc(-c4cccnn4)ccc3C2)CC1 (stereo not shown) [Compound 191, 2-{2-[4-(2-methylcyclopentyl)piperazin-1-yl]-2-oxoethyl}-6-pyridazin-3-yl-1,2,3,4-tetrahydroisoquinoline]
O=C(CN1CCc2cc(-c3cncnc3)ccc2C1)N1CCN2CCCCC2C1 (stereo not shown) [Compound 151, 2-[(6-pyrimidin-5-yl-3,4-dihydroisoquinolin-2(1H)-yl)acetyl]octahydro-2H-pyrido[1,2-a]pyrazine]
O=C(CN1CCc2cc(-n3cccn3)ccc2C1)N1CCN2CCCCC2C1 (stereo not shown) [Compound 153, 2-{[6-(1H-pyrazol-1-yl)-3,4-dihydroisoquinolin-2(1H)-yl]acetyl}octahydro-2H-pyrido[1,2-a]pyrazine]
CC1CCC[C@H]2CN(C(=O)CN3CCc4cc(-c5cncnc5)ccc4C3)CCN12 (stereo in doubt) [Compound 149, 6-methyl-2-[(6-pyrimidin-5-yl-3,4-dihydroisoquinolin-2(1H)-yl)acetyl]octahydro-2H-pyrido[1,2-a]pyrazine]
Cn1c(-c2ccc3c(c2)CCN(CC(=O)N2CCN(C4CCC4)CC2)C3)cccc1=O [Compound 278, 6-{2-[2-(4-cyclobutylpiperazin-1-yl)-2-oxoethyl]-1,2,3,4-tetrahydroisoquinolin-6-yl}-1-methylpyridin-2(1H)-one]
O=C(CN1CCc2cc(-n3ccc(C(F)(F)F)n3)ccc2C1)N1CCN(C2CCC2)CC1 [Compound 157, 2-[2-(4-cyclobutylpiperazin-1-yl)-2-oxoethyl]-6-[3-(trifluoromethyl)-1H-pyrazol-1-yl]-1,2,3,4-tetrahydroisoquinoline]
O=C(CN1CCc2[nH]c(=O)ccc2C1)N1CCN(C2CCCC2)CC1 [Compound 133, 6-[2-(4-cyclopentylpiperazin-1-yl)-2-oxoethyl]-5,6,7,8-tetrahydro-1,6-naphthyridin-2(1H)-one]
O=C(CN1CCc2nn(-c3ccc(Cl)nn3)cc2C1)N1CCN(C2CCC2)CC1 [Compound 201, 2-(6-chloropyridazin-3-yl)-5-[2-(4-cyclobutylpiperazin-1-yl)-2-oxoethyl]-4,5,6,7-tetrahydro-2H-pyrazolo[4,3-c]pyridine]
O=C(CN1CCc2nn(-c3cccnn3)cc2C1)N1CCN(C2CCC2)CC1 [Compound 255, 5-[2-(4-cyclobutylpiperazin-1-yl)-2-oxoethyl]-2-pyridazin-3-yl-4,5,6,7-tetrahydro-2H-pyrazolo[4,3-c]pyridine]
CCOC(=O)c1ccc2c(c1)CCN(CC(=O)N1CCN(C3CCC3)CC1)C2 [Compound 86, ethyl 2-[2-(4-cyclobutylpiperazin-1-yl)-2-oxoethyl]-1,2,3,4-tetrahydroisoquinoline-6-carboxylate]
O=C(CN1CCc2c(cnn2-c2cncnc2)C1)N1CCN(C2CCC2)CC1 [Compound 251, 5-[2-(4-cyclobutylpiperazin-1-yl)-2-oxoethyl]-1-pyrimidin-5-yl-4,5,6,7-tetrahydro-1H-pyrazolo[4,3-c]pyridine]
CCC1CCC[C@H]2CN(C(=O)CN3CCc4cc(C(C)=O)ccc4C3)CCN12 (stereo in doubt) [Compound 163, 1-{2-[2-(6-ethyloctahydro-2H-pyrido[1,2-a]pyrazin-2-yl)-2-oxoethyl]-1,2,3,4-tetrahydroisoquinolin-6-yl}ethanone]
O=C(CN1CCc2cn(-c3cccnc3)nc2C1)N1CCN(C2CCC2)CC1 [Compound 123, 6-[2-(4-cyclobutylpiperazin-1-yl)-2-oxoethyl]-2-pyridin-3-yl-4,5,6,7-tetrahydro-2H-pyrazolo[3,4-c]pyridine]
O=C(CN1CCc2cc(-n3ccc(C(F)(F)F)n3)ccc2C1)N1CCN2CCCCC2C1 (stereo not shown) [Compound 159, 2-({6-[3-(trifluoromethyl)-1H-pyrazol-1-yl]-3,4-dihydroisoquinolin-2(1H)-yl}acetyl)octahydro-2H-pyrido[1,2-a]pyrazine]
CC1CCC[C@H]2CN(C(=O)CN3CCc4nc(Cl)ccc4C3)CCN12 (stereo in doubt) [Compound 174, 2-chloro-6-[2-(6-methyloctahydro-2H-pyrido[1,2-a]pyrazin-2-yl)-2-oxoethyl]-5,6,7,8-tetrahydro-1,6-naphthyridine]
CC1CCCC1N1CCN(C(=O)CN2CCc3nc(N4CCCC4)ncc3C2)CC1 (stereo not shown) [Compound 218, 6-{2-[4-(2-methylcyclopentyl)piperazin-1-yl]-2-oxoethyl}-2-pyrrolidin-1-yl-5,6,7,8-tetrahydropyrido[4,3-d]pyrimidine]

same assay, conditions: assay of Example 7; "*" in Ki of Table II

Ki, < 1000 nM:
COc1ccc(-c2nc3c(s2)CN(CC(=O)N2CCN(C4CCC4)CC2)CC3)cc1C [Compound 333, 5-[2-(4-cyclobutylpiperazin-1-yl)-2-oxoethyl]-2-(4-methoxy-3-methylphenyl)-4,5,6,7-tetrahydro[1,3]thiazolo [5,4-c]pyridine]
N#Cc1cccc(-c2nc3c(s2)CN(CC(=O)N2CCN(C4CCC4)CC2)CC3)c1 [Compound 367, 3-{5-[2-(4-cyclobutylpiperazin-1-yl)-2-oxoethyl]-4,5,6,7-tetrahydro[1,3]thiazolo [5,4-c]pyridin-2-yl}benzonitrile]
O=C(CN1CCc2cc(-c3ccc4c(c3)OCCO4)ccc2C1)N1CCN(C2CCC2)CC1 [Compound 380, 2-[2-(4-cyclobutylpiperazin-1-yl)-2-oxoethyl]-6-(2,3-dihydro-1,4-benzodioxin-6-yl)-1,2,3,4-tetrahydroisoquinoline]
CC(C)c1ccc(-c2nc3c(s2)CN(CC(=O)N2CCN(C4CCC4)CC2)CC3)cc1 [Compound 307, 5-[2-(4-cyclobutylpiperazin-1-yl)-2-oxoethyl]-2-(4-isopropylphenyl)-4,5,6,7-tetrahydro[1,3]thiazolo [5,4-c]pyridine]
Cc1ccc(F)c(-c2nc3c(s2)CN(CC(=O)N2CCN(C4CCC4)CC2)CC3)c1 [Compound 302, 5-[2-(4-cyclobutylpiperazin-1-yl)-2-oxoethyl]-2-(2-fluoro-5-methylphenyl)-4,5,6,7-tetrahydro[1,3]thiazolo [5,4-c]pyridine]
O=C(CN1CCc2nc(-c3ccc4c(c3)OCCO4)sc2C1)N1CCN(C2CCC2)CC1 [Compound 332]
CC(=O)c1cccc(-c2nc3c(s2)CN(CC(=O)N2CCN(C4CCC4)CC2)CC3)c1 [Compound 370, 1-(3-{5-[2-(4-cyclobutylpiperazin-1-yl)-2-oxoethyl]-4,5,6,7-tetrahydro[1,3]thiazolo [5,4-c]pyridin-2-yl}phenyl)ethanone]
Cc1ccc(-c2nc3c(s2)CN(CC(=O)N2CCN(C4CCC4)CC2)CC3)c(F)c1 [Compound 301, 5-[2-(4-cyclobutylpiperazin-1-yl)-2-oxoethyl]-2-(2-fluoro-4-methylphenyl)-4,5,6,7-tetrahydro[1,3]thiazolo [5,4-c]pyridine]
O=C(CN1CCc2nc(-c3cccc(F)c3F)sc2C1)N1CCN(C2CCC2)CC1 [Compound 356, 5-[2-(4-cyclobutylpiperazin-1-yl)-2-oxoethyl]-2-(2,3-difluorophenyl)-4,5,6,7-tetrahydro[1,3]thiazolo [5,4-c]pyridine]

From patent publication US20110082130A1 (LIGAND PHARMACEUTICALS, INC., priority 2006, published 2011)
